Values of other authors, collected in US20090305955A1, “Cyclopeptide with Anti-Cancer Activity Derived from Collagen Type IV” (priority 2006, published 2009).

Legend:
[1] = system: murine melanoma B16F1 cells; details: cells pre-incubated with peptide, injected into C57BL6 syngenic mice; Floquet et al; cited from earlier work
[2] = system: angiogenesis; details: Pasco S et al, 2005; cited from earlier work
[3] = system: various cancer cell lines; details: Han J et al; Shahan S et al; cited from earlier work
[4] = molecular target: T1, αVβ3 integrin-CD47 protein complex (Homo sapiens, UniProt P05106); details: Shahan T A et al; cited from earlier work
T1 construct: αVβ3 integrin-CD47 protein complex present on the surface of melanoma cells
T1 sequence (P05106 27-788): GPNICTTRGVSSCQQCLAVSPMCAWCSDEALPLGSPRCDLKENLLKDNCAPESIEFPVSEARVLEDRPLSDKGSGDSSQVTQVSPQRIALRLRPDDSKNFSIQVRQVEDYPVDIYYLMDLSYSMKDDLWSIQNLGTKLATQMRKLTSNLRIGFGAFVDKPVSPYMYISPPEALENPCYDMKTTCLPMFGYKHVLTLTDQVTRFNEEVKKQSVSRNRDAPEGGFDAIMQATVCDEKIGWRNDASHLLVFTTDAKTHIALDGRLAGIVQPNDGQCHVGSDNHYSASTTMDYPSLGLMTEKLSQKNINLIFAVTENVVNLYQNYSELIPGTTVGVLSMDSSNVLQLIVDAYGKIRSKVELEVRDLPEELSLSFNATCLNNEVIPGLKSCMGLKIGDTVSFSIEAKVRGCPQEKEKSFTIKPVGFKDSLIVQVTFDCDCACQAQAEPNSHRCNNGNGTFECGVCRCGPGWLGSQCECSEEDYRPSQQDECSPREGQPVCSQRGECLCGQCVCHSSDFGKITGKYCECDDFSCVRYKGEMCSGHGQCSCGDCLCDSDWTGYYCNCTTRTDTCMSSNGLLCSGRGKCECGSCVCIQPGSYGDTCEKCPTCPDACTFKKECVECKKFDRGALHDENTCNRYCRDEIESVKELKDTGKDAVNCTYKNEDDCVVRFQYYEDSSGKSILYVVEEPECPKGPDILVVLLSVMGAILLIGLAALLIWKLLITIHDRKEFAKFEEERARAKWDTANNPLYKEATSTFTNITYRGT
T1 sequence (P06756 31-889 partner limits assumed): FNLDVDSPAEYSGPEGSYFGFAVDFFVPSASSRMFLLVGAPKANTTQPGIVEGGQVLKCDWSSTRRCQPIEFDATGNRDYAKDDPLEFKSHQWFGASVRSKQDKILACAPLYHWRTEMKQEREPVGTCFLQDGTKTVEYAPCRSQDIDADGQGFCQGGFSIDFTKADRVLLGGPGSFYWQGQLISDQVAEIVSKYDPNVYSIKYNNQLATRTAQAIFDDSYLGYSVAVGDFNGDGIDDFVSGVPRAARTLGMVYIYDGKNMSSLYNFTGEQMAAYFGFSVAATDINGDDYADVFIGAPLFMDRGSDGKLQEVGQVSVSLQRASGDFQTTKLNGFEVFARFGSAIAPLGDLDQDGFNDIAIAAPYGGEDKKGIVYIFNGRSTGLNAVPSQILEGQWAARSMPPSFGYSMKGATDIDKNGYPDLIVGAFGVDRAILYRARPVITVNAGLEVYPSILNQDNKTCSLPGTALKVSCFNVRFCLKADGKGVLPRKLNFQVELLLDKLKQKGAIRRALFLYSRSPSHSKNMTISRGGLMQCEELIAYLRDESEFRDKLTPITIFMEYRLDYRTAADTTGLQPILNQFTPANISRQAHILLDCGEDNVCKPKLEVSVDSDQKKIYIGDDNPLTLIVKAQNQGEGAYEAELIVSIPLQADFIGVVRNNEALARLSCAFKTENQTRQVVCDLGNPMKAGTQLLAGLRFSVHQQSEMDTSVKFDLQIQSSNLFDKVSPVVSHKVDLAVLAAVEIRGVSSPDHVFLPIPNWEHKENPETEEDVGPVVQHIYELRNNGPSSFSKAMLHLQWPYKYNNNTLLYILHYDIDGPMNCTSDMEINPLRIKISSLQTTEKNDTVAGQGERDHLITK
T1 sequence (P06756 891-1048 partner limits assumed): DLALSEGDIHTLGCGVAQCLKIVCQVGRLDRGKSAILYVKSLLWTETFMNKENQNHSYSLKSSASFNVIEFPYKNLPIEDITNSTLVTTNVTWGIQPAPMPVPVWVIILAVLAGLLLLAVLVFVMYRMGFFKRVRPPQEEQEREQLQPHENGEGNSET
T1 sequence (Q08722 19-323 partner): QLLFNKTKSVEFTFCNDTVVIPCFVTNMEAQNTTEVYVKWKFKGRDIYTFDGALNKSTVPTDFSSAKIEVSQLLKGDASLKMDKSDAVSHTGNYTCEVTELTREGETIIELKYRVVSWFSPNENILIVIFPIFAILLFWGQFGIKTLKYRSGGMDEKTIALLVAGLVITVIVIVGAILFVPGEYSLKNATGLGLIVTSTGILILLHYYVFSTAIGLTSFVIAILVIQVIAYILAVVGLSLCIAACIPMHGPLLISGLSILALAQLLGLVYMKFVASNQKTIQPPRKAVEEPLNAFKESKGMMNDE

[5] = system: melanoma or fibrosarcoma cells; details: Pasco S et al, 2000a; cited from earlier work

Sequence: CNYYSNSYSFWLASLNPER (Chemically synthesized NC1 alpha3 (IV) 185-203) [[NC1 α3(IV) 185-203], peptide constituted by amino acids 185 to 203 of the NC1 α3(IV) domain of type IV collagen]
- tumoral growth of murine melanoma B16F1 cells [1]: inhibits the tumoral growth
- angiogenesis in vitro and in vivo [2]: capable of inhibiting angiogenesis
- proliferation of various cancer cell lines [3]: may inhibit the proliferation
- binding to the αVβ3 integrin-CD47 protein complex on the surface of melanoma cells [4]: binds
- migration of melanoma or fibrosarcoma cells in vitro [5]: inhibit the migration
